Patent US20260272908A1 (VANDERBILT UNIVERSITY, priority 2023, published 2026)

Experiments:
Meta4 organoids = test: Meta4 dysplastic organoid growth and cell death (organoid diameter, phase-contrast, H&E, live/dead staining); type: cell-based, mouse; details: pyrvinium 100 nM, SSTC3 0.2-1 μM, STAT3-IN-1 1 μM, Sttatic 2 μM, 3 days; for cell death: trametinib 1 μM
Method: (§1) All experiments were repeated at least three times.
(§2) All experiments were performed at least in triplicate.

phospho-STAT3 (p-STAT3) = test: Western blot for phospho-STAT3 in Meta3 and Meta4 organoids; type: cell-based, mouse; details: Meta4; 3 days
Method: (§3) FIG. 3C-3D show the Western blot analysis for p-STAT3 and p-ERK in Meta3 and Meta4 organoids (FIG. 3C) and ratios of p-STAT3/total STAT3 and p-ERK/total ERK (FIG. 3D). […] FIG. 3F-3G show phase-contrast images of Meta4 organoids treated with DMSO, Pyr (100 nM), STAT3-IN-1 (1 μM), Stattic (2 μM), and Cryptotanshinone (CPT) (5 μM) for 3 days (FIG. 3F), and quantitation of organoid diameters before and after treatment (FIG. 3G). FIG. 3H-3I show phase-contrast images of Meta4 organoids treated with DMSO, trametinib (Tra), STAT3-IN-1, combination of Tra and STAT3-IN-1, and Pyr, for 3 days (FIG. 3H), and quantitation of organoid diameters before and after treatment (FIG. 3I). FIG. 3J-3K show western blot for p-STAT3 and p-ERK after treatment of Tra, Pyr, and SSTC3 (FIG. 3J) and ratios of p-STAT3/t-STAT3 and p-ERK/t-ERK (FIG. 3K). […] Relative quantification of each gene expression level was normalized to GAPDH gene expression. Shading scale represents the mRNA expression values. FIG. 3M show representative mRNA of Pim-1 and Cyclin-B1 after treatment. Mean±standard deviation. […] Scale bar=500 μM.
(§4) Total proteins were extracted from organoids using radioimmunoprecipitation assay buffer (10 mmol/L Tris-HC, pH 7.2, 150 mmol/L NaCl, 5 mmol/L EDTA, 0.1% sodium dodecyl sulfate, 1.0% Triton X-100, 1% deoxycholate) with protease inhibitors. The protein concentration was measured The Bio-Rad Protein Assay (Bio-Rad Laboratories, Hercules, CA). 5 to 10 μg of total protein was loaded onto 12.5% or 10% sodium dodecyl sulfate/polyacrylamide gel electrophoresis (PAGE) and transferred onto polyvinylidene difluoride membranes (Millipore, Billerica, MA). […] After washes with TBS-T, chemiluminescence was detected with an Amersham Imager 680 instrument (GE Healthcare) after 1 mL of the SuperSignal West Femto Maximum Sensitivity Substrate (ThermoFisher) was applied to the membranes.

phospho-ERK (p-ERK) = test: Western blot for phospho-ERK in Meta3 and Meta4 organoids; type: cell-based, mouse; details: Meta4; 3 days
Method: as §3, §4

Meta3 organoids = test: Meta3 metaplastic organoid growth and survival (organoid diameter, phase-contrast); type: cell-based, mouse; details: STAT3-IN-1 1 μM, Sttatic 2 μM, CPT 5 μM, 3 days
Method: as §1, §2

[1] = system: human pre-cancerous organoid (hPCO) lines; test: Human precancerous organoid (hPCO) growth and organoid death; details: STAT3 inhibitors; for response (growth and survival): pyrvinium-resistant hPCO-31
Method: To establish human pre-cancer organoids (hPCO), fresh tissues were obtained from the gastric cancer patients who underwent curative gastrectomy at SNUH (IRB No. H-1806-166-954).
Meta3, Meta4, and hPCO organoids were cultured in Matrigel (ECM, Sigma) with Mouse or Human IntestiCult medium (StemCell Technology) supplemented with 1% of penicillin/streptomycin (Gibco) in 48-well plates and medium was replaced every 3 days. The organoids were split every 5-7 days before they formed budding structures.
Mouse or human organoids were split and cultured in the Mouse or Human IntestiCult media for 1-2 days until they formed three-dimensional (3D) spherical structures, then the media was switched to media containing either DMSO vehicle or a certain concentration of each drug and cultured for 3 days. The EVOS M7000 inverted microscope were used to obtain phase contrast images of organoids. All experiments were repeated at least three times.
The number and diameters of mouse and human organoids treated with drugs were manually counted and measured at day 0 and 3 or 6 after treatment from four entire well images of each condition at 4× magnification. For counting live or dead cells, organoids were stained with Calcein AM for live cells and EthD-1 for dead cells 3 days after treatment and the number of EthD-1 positive organoids were manually counted from images taken from three wells of each condition at 4× magnification. All experiments were performed at least in triplicate. The mean values from each condition were compared by Student's paired or unpaired t-test using Graphpad Prism. *P<0.05, **P<0.01, ***P<0.001, ****P<0.0001.

[2] = pyrvinium-sensitive hPCO-2 line

Compound	organoid size / growth (Meta4 organoids)	cell death (Meta4 organoids)	phosphorylation of STAT3^Y705 (phospho-STAT3 (p-STAT3))	p-ERK levels (phospho-ERK (p-ERK))	survival and growth of organoids (Meta3 organoids)	response (growth and survival) [1]	organoid survival [1, 2]	organoid growth ([1]; pyrvinium-sensitive hPCO-2 line, 6 days)
CN(c1ccc(C(F)(F)F)cc1)S(=O)(=O)c1ccc(C(=O)Nc2nc(-c3ccccn3)cs2)cc1 [SSTC3]	did not cause any growth suppression or cell death	did not cause any growth suppression or cell death	did not reduce	did not reduce				
COc1cc(/C=C/c2ccc(NC(=O)/C=C/c3cc(OC)c(OC)c(OC)c3)cc2)cc(OC)c1 [STAT3-IN-1]	induced growth arrest	did not lead to cell death			no influence on the survival and growth	did not respond	survived until 6 days after the treatment	
O=[N+]([O-])c1ccc2c(c1)S(=O)(=O)C=C2 [Sttatic]	induced growth arrest	did not lead to cell death			no influence on the survival and growth	did not respond	survived until 6 days after the treatment	arrested organoid growth
